Marks after values point to notes of the source that are not given here.
What was measured:
Assay in all cases: 10-day proliferation (CTG), SPLAM titration + 1000 nM Compound A, Bliss (Example 5; Tables 12-19)
Type in all cases: cell-based
Parameters in all cases: key: GDI scale -100 to 100; 0 = cell number at T0; <0 cytotoxic
Details in all cases: alone or + 1 uM Cmpd A
[1] = system: SW900
Experimental: (§1) Synergy was measured across the Indisulam titration with 1000 nM Compound A by Bliss Independence analysis. Bliss scores >10 are indicated by “*” and are considered synergistic. […] Synergy as reported using Bliss may be underrepresented within cytotoxic dose ranges. Growth death index values are shown for the combination titration and each single agent Compound A (Cmpd A) and Indisulam on a scale of −100 to 100 with the midpoint (0) being the number of cells at the beginning of the combination (T0). Scores less than 0 are indicated with “**” and are representative of a cytotoxic response. Bliss and GDI values are shown for five MTAP-deficient cell lines: NCI-1H838 (12A), SW900 (12B), RT112/84 (12C), UMUC5 (121D), and UMUC11 (12E).
(§2) A 10-day proliferation assay was performed in a panel of 5 MTAP-deficient and 2 wild type non-small cell lung and bladder cancer cell lines. Optimal cell seeding for all cell lines was determined by assessing the growth over a range of seeding densities in a 384-well format to identify conditions that permitted proliferation for 10 days. Cells were then plated at the optimal seeding density and treated with 20-point, two-fold dilution series of each of four structurally different SPLAMs in combination with a 1000 nM fixed concentration of Compound A. Single agent titrations for Compound A and each SPLAM were included for comparison. Concentrations tested for each SPLAM alone or in combination ranged from 0.04 nM to 20,000 nM. A plate of cells was harvested at the time of compound addition to quantify the number of cells at the start of the combination (T0). For cell quantification, the harvested cells were lysed with Promega CellTiter-Glo (CTG) reagent according to the manufacturer's protocol and the chemiluminescent signal was detected as described in Example 1 above. Cells were incubated with the drug combinations at 37° C. with 5% CO2 for 10 days. Cells were then lysed with CTG and the chemiluminescent signal was measured.
(§3) CTG values obtained after the 10-day treatment were background subtracted and expressed as a percent of the T0 value set at 100%. Data were plotted against compound concentration and fit with a four-parameter equation to generate single agent dose response curves. Percent inhibition was determined for each combination and single agent concentration compared to a DMSO control. In addition, the overall net growth or death of the cells was calculated and reported as a growth death index (GDI) value on a scale of −100 to 100 with the midpoint (0) being the number of cells at the beginning of the combination (T0).
(§4) Predicted inhibition was calculated using (Ea+Eb)−(Ea*Eb) where E equals the effect (inhibition) of each single agent (a and b). A difference between the observed inhibition percentage and the predicted inhibition percentage greater than 10% was considered synergistic. A Bliss score was only reported for combinations eliciting >20% growth inhibition (GDI value <80). Since Bliss is calculated based on growth inhibition, scores within cytotoxic dose ranges may not accurately reflect synergistic cytoxicity.
(§5) Synergy was measured across the E7820 titration with 1000 nM Compound A by Bliss Independence analysis. Bliss scores >10 are indicated by “*” and are considered synergistic. […] Synergy as reported using Bliss may be underrepresented within cytotoxic dose ranges. Growth death index values are shown for the combination titration and each single agent Compound A (Cmpd A) and Indisulam on a scale of −100 to 100 with the midpoint (0) being the number of cells at the beginning of the combination (T0). Scores less than 0 are indicated by “**” and are representative of a cytotoxic response. Bliss and GDI values are shown for five MTAP-deficient cell lines: NCI-1H838 (14A), SW900 (14B), RT112/84 (14C), UMUC5 (141)), and UMUC11 (14E).
(§6) Synergy was measured across the Chloroquinoxaline Sulfonamide titration with 1000 nM Compound A by Bliss Independence analysis.

[2] = system: UMUC11
Experimental: as §1, §2, §3, §4, §5, §6

[3] = system: UMUC5
Experimental: as §1, §2, §3, §4, §5, §6

[4] = system: RT112/84
Experimental: as §1, §2, §3, §4, §5, §6

`NS(=O)(=O)c1ccc(S(=O)(=O)Nc2cccc3c(Cl)c[nH]c23)cc1` [Indisulam, N-(3-chloro-1H-indol-7-yl)benzene-1,4-disulfonamide] gave a GDI ([1]; SPLAM 0.04 nM) of 100, a GDI ([1]; SPLAM 0.1 nM) of 98 and a GDI ([1]; SPLAM 0.2 nM) of 94. The GDI ([1]; SPLAM 0.3 nM) was 100, the GDI ([1]; SPLAM 0.6 nM) was 100 and the GDI ([1]; SPLAM 1.2 nM) was 100. It also gave a GDI ([1]; SPLAM 2.4 nM) of 100, a GDI ([1]; SPLAM 4.9 nM) of 100 and a GDI ([1]; SPLAM 9.8 nM) of 100. For the same molecule, the GDI ([1]; SPLAM 19.5 nM) was 100, the GDI ([1]; SPLAM 39.1 nM) was 100 and the GDI ([1]; SPLAM 78.1 nM) was 100. The GDI ([1]; SPLAM 156.3 nM) was 100, the GDI ([1]; SPLAM 312.5 nM) was 34 and the GDI ([1]; SPLAM 625 nM) was −3**. For the same molecule, the GDI ([1]; SPLAM 1250 nM) was −33**, the GDI ([1]; SPLAM 2500 nM) was −61** and the GDI ([1]; SPLAM 5000 nM) was −56**. The GDI ([1]; SPLAM 10000 nM) was −58**, the GDI ([1]; SPLAM 20000 nM) was −60** and the GDI ([2]; SPLAM 0.04 nM) was 100. It also gave a GDI ([2]; SPLAM 0.1 nM) of 100, a GDI ([2]; SPLAM 0.2 nM) of 100 and a GDI ([2]; SPLAM 0.3 nM) of 100. It also gave a GDI ([2]; SPLAM 0.6 nM) of 100, a GDI ([2]; SPLAM 1.2 nM) of 100 and a GDI ([2]; SPLAM 2.4 nM) of 100. It also gave a GDI ([2]; SPLAM 4.9 nM) of 100, a GDI ([2]; SPLAM 9.8 nM) of 100 and a GDI ([2]; SPLAM 19.5 nM) of 100. The GDI ([2]; SPLAM 39.1 nM) was 100, the GDI ([2]; SPLAM 78.1 nM) was 100 and the GDI ([2]; SPLAM 156.3 nM) was 100. For the same molecule, the GDI ([2]; SPLAM 312.5 nM) was 73, the GDI ([2]; SPLAM 625 nM) was 35 and the GDI ([2]; SPLAM 1250 nM) was 13. The GDI ([2]; SPLAM 2500 nM) was 5, the GDI ([2]; SPLAM 5000 nM) was 2 and the GDI ([2]; SPLAM 10000 nM) was 2. For the same molecule, the GDI ([2]; SPLAM 20000 nM) was 1, the GDI ([3]; SPLAM 0.04 nM) was 100 and the GDI ([3]; SPLAM 0.1 nM) was 100. It also gave a GDI ([3]; SPLAM 0.2 nM) of 100, a GDI ([3]; SPLAM 0.3 nM) of 100 and a GDI ([3]; SPLAM 0.6 nM) of 100. For the same molecule, the GDI ([3]; SPLAM 1.2 nM) was 98, the GDI ([3]; SPLAM 2.4 nM) was 100 and the GDI ([3]; SPLAM 4.9 nM) was 100. The GDI ([3]; SPLAM 9.8 nM) was 100, the GDI ([3]; SPLAM 19.5 nM) was 100 and the GDI ([3]; SPLAM 39.1 nM) was 100. The GDI ([3]; SPLAM 78.1 nM) was 100, the GDI ([3]; SPLAM 156.3 nM) was 94 and the GDI ([3]; SPLAM 312.5 nM) was 69. For the same molecule, the GDI ([3]; SPLAM 625 nM) was 26, the GDI ([3]; SPLAM 1250 nM) was 5 and the GDI ([3]; SPLAM 2500 nM) was 3. The GDI ([3]; SPLAM 5000 nM) was 3, the GDI ([3]; SPLAM 10000 nM) was 2 and the GDI ([3]; SPLAM 20000 nM) was 2. The GDI ([4]; SPLAM 0.04 nM) was 98, the GDI ([4]; SPLAM 0.1 nM) was 100 and the GDI ([4]; SPLAM 0.2 nM) was 100. The GDI ([4]; SPLAM 0.3 nM) was 100, the GDI ([4]; SPLAM 0.6 nM) was 96 and the GDI ([4]; SPLAM 1.2 nM) was 95. It also gave a GDI ([4]; SPLAM 2.4 nM) of 100, a GDI ([4]; SPLAM 4.9 nM) of 100 and a GDI ([4]; SPLAM 9.8 nM) of 100. The GDI ([4]; SPLAM 19.5 nM) was 100, the GDI ([4]; SPLAM 39.1 nM) was 100 and the GDI ([4]; SPLAM 78.1 nM) was 100. For the same molecule, the GDI ([4]; SPLAM 156.3 nM) was 99, the GDI ([4]; SPLAM 312.5 nM) was 44 and the GDI ([4]; SPLAM 625 nM) was 12. The GDI ([4]; SPLAM 1250 nM) was −34**, the GDI ([4]; SPLAM 2500 nM) was −76** and the GDI ([4]; SPLAM 5000 nM) was −63**. For the same molecule, the GDI ([4]; SPLAM 10000 nM) was −74** and the GDI ([4]; SPLAM 20000 nM) was −92**.

From US20260294915A1, “COMBINATION THERAPY COMPRISING A MAT2A INHIBITOR AND A TOPOISOMERASE INHIBITOR, A SPLICING INHIBITOR SULFONAMIDE, OR A KIF18 INHIBITOR” (IDEAYA BIOSCIENCES, INC., priority 2023, published 2026)
